We go through 5 molecules from article PMC8160850 (Viruses, 2021).

In data set [1] the test system is MRC5 cells. In words: Cell viability of uninfected cells in the screening. It counts as cell-based. Particulars: 7 days.
Data set [2] has as its system MRC5 cells. It counts as cell-based.
Data set [3] concerns HCMV TB4-UL83-EYFP genome. Briefly: Analysis of HCMV DNA replication by qPCR in infected MRC5 cells. It counts as cell-based, human cytomegalovirus (HCMV). Conditions: for Decrease in viral genome copy number: B3 50 μM, MOI 0.01 IU/cell.
The test system of data set [4] is MRC5 cells. In words: Intracellular ATP quantification. Format: cell-based. Conditions: for Reduction of intracellular ATP levels: 100 μM.
In another data set the test system is HCMV AD169. Briefly: Plaque reduction assay (PRA) in HFF cells. Format: cell-based, human cytomegalovirus (HCMV).
Data set [5] concerns AD169-GFP. In words: FRA with AD169-GFP in MRC5 cells. Format: cell-based, human cytomegalovirus (HCMV). Conditions: MRC5, MOI 0.05 IU/cell, 7 days, n = 6.
Another data set deals with hepatitis C virus (HCV). Also noted: method as in earlier work. Particulars: Huh7-Lunet cells ref 60; cited from earlier work.
The subject of data set [6] is AD169-GFP26 (UL97 M460I). Briefly: FRA with GCV-resistant AD169-GFP26 in MRC5 cells. Particulars: MRC5, MOI 0.05 IU/cell, 7 days, n = 6. It counts as cell-based, human cytomegalovirus (HCMV).
A short description of data set [7]: MTT cell cytotoxicity assay. It counts as cell-based. Particulars: human, uninfected MRC5 cells, MTT, uninfected MRC5, 7 days.
For data set [8], the system named is MRC5 cells. Briefly: MTT cell cytotoxicity assay. Format: cell-based. Particulars: for Selectivity index (SI), CC50/ED50: MTT CC50 / FRA ED50 TB4-UL83-EYFP; for Cytotoxicity (in words): MRC5, up to 100 μM, 7 days.
Data set [9] concerns HCMV TB4-UL83-EYFP. It counts as cell-based, human cytomegalovirus (HCMV). Particulars: 7 days p.i., MOI 0.03 IU/cell.
In data set [10] the test system is AD169-GFP. In words: Virus yield reduction assay (VYRA) with AD169-GFP. It counts as cell-based, human cytomegalovirus (HCMV). Particulars: n = 4.
The subject of data set [11] is HCMV AD169 gene expression (IE1, ppUL44, pp65, pp28). Briefly: Analysis of HCMV gene expression by Western blotting in infected MRC5 cells. Particulars: GCV 16 μM, B3 50 μM; for IE1 expression: 6 and 12 h p.i., AD169 MOI 2 IU/cell; for Expression of ppUL44 and pp65: 48 h p.i.; for pp28 expression: 72 h and 96 h p.i.; for ppUL44 and pp65 levels: up to 24 h p.i. Format: cell-based, human cytomegalovirus (HCMV).

For data set [12], the system named is AD169-GFP26 (UL97 M460I). Briefly: Virus yield reduction assay (VYRA) with AD169-GFP26. Format: cell-based, human cytomegalovirus (HCMV). Conditions: AD169-GFP26 (GCV-resistant), n = 4.
Data set [13] has as its system HCMV TB4-UL83-EYFP. In words: Dose-response fluorescence reduction assay. Format: cell-based, human cytomegalovirus (HCMV). Conditions: FRA, MRC5, MOI 0.03 IU/cell, 7 days p.i.

Where “and” joins values, the source holds several entries; their conditions need not be identical. Identical values can stand only once. Like-named read-outs stand apart in the source and are kept apart here.

Consider `CCOc1ccccc1[C@H]1C(C#N)=C(SCC(=O)OC)NC(=O)[C@@H]1C#N` [A4], for which the Cytotoxicity result in the data set with MRC5 cells [1] (10 μM, uninfected MRC5) was “caused evident cytotoxicity”. In the data set on MRC5 cells [2], the “Solubility in culture medium (precipitates)” value is “not soluble”.
For `OC[C@@H](O)Cn1c(Cc2cccc3ccccc23)nc2ccccc21` [B3], the results for the “Decrease in viral genome copy number” value in data set [3] (72 h p.i.) and in data set [3] (120 h p.i.) were ~ 4 fold and 6 fold, respectively. The “Effect on intracellular ATP levels” value in the data set with MRC5 cells [4] (all time points analyzed (24, 72, 144 h)) is “minimal effects”. The ED50 with HCMV AD169 was 7.9 ± 3.5 µM; in the data set on AD169-GFP [5], 7.9 µM and 7.9 ± 2.7 µM; in the data set on AD169-GFP26 (UL97 M460I) [6] it was 17.6 ± 12.8 µM; in the data set with AD169-GFP [10], 5.1 ± 3.3 µM; in the data set on AD169-GFP26 (UL97 M460I) [12] it was 9.8 ± 15.6 µM. For the same molecule, the “Effect on protein expression and hepatitis C virus replication” value in the data set on hepatitis C virus (HCV) is “did not affect either protein expression nor hepatitis C virus replication”. Besides, in data set [7], the CC50 at 7 days is greater than 100 µM. Moreover, the “Selectivity index (SI), CC50/ED50” value in the data set with MRC5 cells [8] is greater than 20. Also, the “Cytotoxicity (in words)” value in the data set with MRC5 cells [8] (MTT) is reported as “did not cause evident cytotoxicity up to 100 μM”. The “Inhibition of viral replication (YFP fluorescence)” value (from here on “Inhibition of viral replication”) in the data set on HCMV TB4-UL83-EYFP [9] (10 μM) is “inhibited viral replication”. In addition, the IE1 expression entry in data set [11] is given as “neither GCV nor B3 treatment affected IE1 expression”. In addition, in data set [11], the “Expression of ppUL44 and pp65” value is listed as “decrease”. The pp28 expression entry in data set [11] was “strongly inhibited”. Also, the “ppUL44 and pp65 levels” value in data set [11] was “not affected”.
On to `Cc1ccc(-c2nnc(Nc3ccc(CC(N)=O)cc3)c3ccccc23)cc1S(=O)(=O)NC1CCCCC1` [B6], for which the “Reduction of intracellular ATP levels” value was “more than 50%” in the data set with MRC5 cells [4] (24 h post treatment) and roughly 100% in the data set on MRC5 cells [4] (72 h post treatment). The same molecule gave an ED50 in the data set with HCMV TB4-UL83-EYFP [13] of 2.1 ± 0.6 µM. Further, the CC50 at 7 days in [7] is roughly 10 µM. For the same molecule, the “Selectivity index (SI), CC50/ED50” value in the data set with MRC5 cells [8] is listed as less than 5. In the data set with MRC5 cells [8] (MTT, uninfected MRC5, 7 days), this molecule yielded a CC50 of 10.7 ± 2.3 µM. In addition, the “Inhibition of viral replication” value with HCMV TB4-UL83-EYFP [9] (10 μM) is listed as “inhibited viral replication”.
Take `O=C(O)C[C@H]1S/C(=N/N=C/c2c(OCc3ccccc3Cl)ccc3ccccc23)NC1=O` [C6]: in the data set with MRC5 cells [4] (24 h post treatment), the “Reduction of intracellular ATP levels” value is recorded as “more than 30%”. The “Reduction of cell viability” value in the data set with MRC5 cells [1] (100 μM, MTS and CellTiter Glo) was no more than 40%. Moreover, the “Cell morphology upon microscopic evaluation” value in the data set with MRC5 cells [2] is given as “significantly altered”. The 50% cytotoxic concentration (CC50) at 7 days in data set [7] was greater than 100 µM. Also, the “Cytotoxicity (in words)” value in the data set with MRC5 cells [8] (MTT) is recorded as “low cytotoxicity”. Besides, the “Inhibition of viral replication” value in the data set on HCMV TB4-UL83-EYFP [9] (100 μM) was “impaired viral replication”.
Turning to `Nc1nc(O)c2ncn(COC(CO)CO)c2n1` [GCV, Ganciclovir, reference compound], in [3] (GCV 16 μM, starting from 72 h p.i.), the “Viral genome copy number (in words)” value is recorded as “significantly reduced viral genome copy number”. Further, the ED50 with HCMV AD169 was 1.3 ± 0.9 µM; in the data set with AD169-GFP [5], 2.3 µM and 2.3 ± 1.9 µM; with AD169-GFP26 (UL97 M460I) [6] it was 21.7 ± 9.6 µM; with AD169-GFP [10], 0.7 µM and 0.7 ± 0.4 µM; with AD169-GFP26 (UL97 M460I) [12], 4.7 ± 4.8 µM. The same molecule came in with a CC50 at 7 days in data set [7] greater than 100 µM. The “Cytotoxicity (in words)” value with MRC5 cells [8] (MTT) was “did not cause detectable cytotoxic effects at any concentration tested”. For the same molecule, the IE1 expression result in data set [11] was “neither GCV nor B3 treatment affected IE1 expression”. Moreover, the “Expression of ppUL44 and pp65” value in data set [11] was “decrease”. The pp28 expression entry in data set [11] is reported as “strongly inhibited”. In addition, the “ppUL44 and pp65 levels” value in data set [11] is “not affected”.
